This passage reports EC50 results from patent publication US20250282776A1, “Bicyclic TLR7 Agonists and Uses Thereof” (Bristol-Myers Squibb Company, priority 2024, published 2025).

Assay [1] deals with T1, human TLR8 (hTLR8) (Homo sapiens, UniProt Q9NR97).
T1 construct: expressed in transfected cells
T1 sequence (Q9NR97 27-1041): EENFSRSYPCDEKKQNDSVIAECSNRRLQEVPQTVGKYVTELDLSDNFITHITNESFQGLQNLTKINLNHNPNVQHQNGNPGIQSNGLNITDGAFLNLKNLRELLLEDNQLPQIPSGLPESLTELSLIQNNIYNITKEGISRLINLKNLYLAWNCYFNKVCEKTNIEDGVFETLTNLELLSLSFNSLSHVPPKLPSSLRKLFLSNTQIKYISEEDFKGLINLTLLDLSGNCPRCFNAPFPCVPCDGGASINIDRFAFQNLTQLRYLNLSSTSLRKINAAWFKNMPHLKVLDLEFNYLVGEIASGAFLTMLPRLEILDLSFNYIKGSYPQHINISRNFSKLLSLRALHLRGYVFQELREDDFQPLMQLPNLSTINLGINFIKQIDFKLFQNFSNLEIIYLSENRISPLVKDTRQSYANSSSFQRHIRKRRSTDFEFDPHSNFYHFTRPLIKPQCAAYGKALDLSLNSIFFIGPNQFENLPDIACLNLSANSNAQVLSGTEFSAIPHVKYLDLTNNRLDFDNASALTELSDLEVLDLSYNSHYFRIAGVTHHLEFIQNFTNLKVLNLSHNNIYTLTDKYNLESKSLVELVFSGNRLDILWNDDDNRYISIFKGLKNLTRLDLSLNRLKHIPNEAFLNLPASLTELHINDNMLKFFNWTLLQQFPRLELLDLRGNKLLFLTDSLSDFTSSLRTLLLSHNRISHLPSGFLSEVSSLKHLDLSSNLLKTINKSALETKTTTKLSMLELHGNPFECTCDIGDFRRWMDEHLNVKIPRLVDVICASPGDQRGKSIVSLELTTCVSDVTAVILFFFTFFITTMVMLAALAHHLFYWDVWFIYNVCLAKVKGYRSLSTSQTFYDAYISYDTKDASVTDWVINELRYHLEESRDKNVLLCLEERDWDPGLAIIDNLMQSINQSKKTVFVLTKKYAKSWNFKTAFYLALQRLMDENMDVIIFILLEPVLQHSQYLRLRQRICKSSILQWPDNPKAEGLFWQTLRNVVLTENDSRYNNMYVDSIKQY
The experiment in a line: Human TLR8 agonist activity assay (measured in a similar manner). The format is cell-based. To be noted: HEK-Blue TLR cells, SEAP reporter, measured in a similar manner to TLR7; some values average of multiple measurements. As for the experimental part:
(§1) This procedure describes a method for assaying human TLR7 (hTLR7) and human TLR8 (hTLR8) agonist activity of the compounds disclosed herein.
HEK-Blue™ TLR7 cells were added to each well of a 384-well tissue-culture plate (15,000 cells per well) and incubated 16-18 h at 37° C., 5% CO2. Compounds (100 nL) were dispensed into wells containing the HEK-Blue™ TLR cells and the treated cells were incubated at 37° C., 5% CO2. After 18 h, ten microliters 5 of freshly prepared Quanti-Blue™ reagent (Invivogen) was added to each well and incubated for 30 min (37° C., […]). SLAP levels were measured using an Envision plate reader (OD=620 nm). […] Some of the reported activities were the average of multiple measurements.
TLR8 activity was measured in a similar manner.

Assay [2] deals with T2, human TLR7 (hTLR7) (Homo sapiens, UniProt Q9NYK1).
T2 construct: host or cells: HEK-Blue TLR7 cells (engineered human embryonic kidney cells)
T2 sequence (Q9NYK1 27-1049): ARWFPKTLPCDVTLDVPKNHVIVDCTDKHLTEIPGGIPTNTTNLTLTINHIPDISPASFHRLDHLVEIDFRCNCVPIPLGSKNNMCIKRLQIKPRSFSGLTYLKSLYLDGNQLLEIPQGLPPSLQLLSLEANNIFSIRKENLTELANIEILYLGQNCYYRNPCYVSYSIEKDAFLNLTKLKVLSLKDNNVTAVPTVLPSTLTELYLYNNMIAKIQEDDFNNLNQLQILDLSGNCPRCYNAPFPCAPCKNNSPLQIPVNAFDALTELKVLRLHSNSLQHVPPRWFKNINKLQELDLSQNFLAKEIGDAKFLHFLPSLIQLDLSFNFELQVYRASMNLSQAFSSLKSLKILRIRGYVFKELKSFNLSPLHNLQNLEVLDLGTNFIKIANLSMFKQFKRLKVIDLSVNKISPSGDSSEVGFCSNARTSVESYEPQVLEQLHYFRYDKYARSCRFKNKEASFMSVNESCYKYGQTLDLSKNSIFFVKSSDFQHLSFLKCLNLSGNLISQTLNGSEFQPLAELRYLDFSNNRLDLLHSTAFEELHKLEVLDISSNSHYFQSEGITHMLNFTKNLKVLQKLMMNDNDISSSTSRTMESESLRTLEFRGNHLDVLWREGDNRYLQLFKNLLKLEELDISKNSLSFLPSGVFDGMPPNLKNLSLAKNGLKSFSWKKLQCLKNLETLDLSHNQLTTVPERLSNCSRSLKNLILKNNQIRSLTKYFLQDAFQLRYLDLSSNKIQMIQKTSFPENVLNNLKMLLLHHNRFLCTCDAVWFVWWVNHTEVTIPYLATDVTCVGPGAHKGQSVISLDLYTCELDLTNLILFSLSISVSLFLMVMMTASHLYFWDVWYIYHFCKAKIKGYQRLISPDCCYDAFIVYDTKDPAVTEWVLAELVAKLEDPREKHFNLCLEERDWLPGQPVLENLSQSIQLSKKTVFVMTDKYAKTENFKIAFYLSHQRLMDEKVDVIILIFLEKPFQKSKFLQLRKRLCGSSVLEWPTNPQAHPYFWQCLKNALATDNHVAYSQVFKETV
The experiment in a line: Human TLR7 agonist activity assay (HEK-Blue TLR7 SEAP reporter). The format is cell-based. To be noted: HEK-Blue TLR7 cells, 18 h incubation, Quanti-Blue, OD 620 nm, some values average of multiple measurements. As to the method:
as §1
HEK-Blue™ TLR7 cells were added to each well of a 384-well tissue-culture plate (15,000 cells per well) and incubated 16-18 h at 37° C., 5% CO2. Compounds (100 nL) were dispensed into wells containing the HEK-Blue™ TLR cells and the treated cells were incubated at 37° C., 5% CO2. After 18 h, ten microliters 5 of freshly prepared Quanti-Blue™ reagent (Invivogen) was added to each well and incubated for 30 min (37° C., […]). SLAP levels were measured using an Envision plate reader (OD=620 nm). The half maximal effective concentration values (ECSO; compound concentration which induced a response halfway between the assay baseline and maximum) were calculated. Some of the reported activities were the average of multiple measurements.

By EC50 is commonly meant the concentration needed to bring the measured effect to its halfway point. A high value points to a less potent agent. Take `CCCCN(c1nc(N)nc2cn(Cc3ccc(CN4CCCCC4)cc3OC)nc12)C(C)CO` (racemic) [Compound 49, 2-((5-amino-2-(2-methoxy-4-(piperidin-1-ylmethyl)benzyl)-2H-pyrazolo[4,3-d]pyrimidin-7-yl)(butyl)amino)propan-1-ol]: the EC50 in assay [1] is 682 nM; in assay [2], 385 nM.
Turning to `CCCCN(CCO)c1nc(N)nc2cn(Cc3ccc(CNC4CCOCC4)cc3)nc12` [Compound 158], the EC50 in assay [1] turned out to be 389 nM; in assay [2], 1160 nM.
As to `CCCCN(CCO)c1nc(N)nc2cn(Cc3ccc(CNC(C)(C)C)n4ncnc34)nc12` [Compound 189, 2-((5-Amino-2-((5-((tert-butylamino)methyl)-[1,2,4]triazolo[1,5-a]pyridin-8-yl)methyl)-2H-pyrazolo[4,3-d]pyrimidin-7-yl)(butyl)amino)ethan-1-ol], the EC50 in assay [1] came out at 570 nM; in assay [2] it was 793 nM.
As for `CCCCN(CCO)c1nc(N)nc2cn(Cc3ccc(CNC4CC(F)(F)C4)c4cccnc34)nc12` [Compound 64], the figures for the EC50 in assay [1] and in assay [2] were 1550 nM and 2110 nM, respectively.
In the same order, the values of `CCCCN(CCO)c1nc(N)nc2cn(Cc3ccc(CN4CCCCC4)cc3OC)nc12` [Compound 2] are 1010 nM and 1340 nM.
With `CCCCN(CCO)c1nc(N)nc2cn(Cc3c(F)cc(C4=CCC(N(CCO)CCO)CC4)cc3OC)nc12` (centres unmarked) [Compound 197], the results for the EC50 in assay [1] and in assay [2] were 2740 nM and 570 nM, respectively.
Taken in the same sequence, the figures for `CCCCN(CCO)c1nc(N)nc2cn(Cc3ccc(CNC(C)(C)C)cc3C(F)F)nc12` [Compound 128] were 628 nM and 1190 nM.
As to `CCCCN(CCO)c1nc(N)nc2cn(Cc3ccc(CNCCCCO)c4cccnc34)nc12` [Compound 59], the EC50 was 1140 nM in assay [1] and 1550 nM in assay [2].
Taken in the same sequence, the figures for `CCCCN(CCO)c1nc(N)nc2cn(Cc3c(F)cc(C4=CCC(NC5CC6(COC6)C5)CC4)cc3OC)nc12` (centres unmarked) [Compound 192] were 1600 nM and 550 nM.
Take `CCCCN(CCO)c1nc(N)nc2cn(Cc3ccc(CNC4CCOC(C)(C)C4)cc3OC)nc12` (racemic) [Compound 103, 2-((5-Amino-2-(4-(((2,2-dimethyltetrahydro-2H-pyran-4-yl)amino)methyl)-2-methoxybenzyl)-2H-pyrazolo[4,3-d]pyrimidin-7-yl)(butyl)amino) ethan-1-ol]: the EC50 came to 202 nM in assay [1] and 322 nM in assay [2].
Turning to `CCCCN(CCO)c1nc(N)nc2cn(Cc3ccc(CNC4CCS(=O)(=O)CC4)c4scnc34)nc12` [Compound 213], the EC50 in assay [1] is 677 nM; in assay [2] it was 396 nM.
Taken in the same sequence, the figures for `CCCCN(CCO)c1nc(N)nc2cn(Cc3ccc(CN[C@@H]4CCCN(C(C)=O)C4)c4cccnc34)nc12` [Compound 186] were 3490 nM and 1690 nM.
As for `CCCCN(CCO)c1nc(N)nc2cn(Cc3c(F)cc(C4CCN(C(C)C)CC4)cc3OC)nc12` [Compound 40], the EC50 amounted to 801 nM in assay [1] and 392 nM in assay [2].
Turning to `CCCCN(CCO)c1nc(N)nc2cn(Cc3ccc(CNC4(C)CC4)cc3OC)nc12` [Compound 89], the EC50 was found to be 961 nM in assay [1] and 1550 nM in assay [2].
Taken in the same sequence, the figures for `CCCCN(CCO)c1nc(N)nc2cn(Cc3ccc(CNC4(C)COC4)cc3OC)nc12` [Compound 21] were 834 nM and 587 nM.
`CCCCN(CCO)c1nc(N)nc2cn(Cc3ccc(CNC4(C)CCOCC4)cc3OC)nc12` [Compound 88, 2-((5-Amino-2-(2-methoxy-4-(((4-methyltetrahydro-2H-pyran-4-yl)amino)methyl)benzyl)-2H-pyrazolo[4,3-d]pyrimidin-7-yl)(butyl)amino)ethan-1-ol]: the concentration for a half-maximal effect (EC50) amounted to 535 nM in assay [1] and 805 nM in assay [2].
